Assay results published in US12187672B2, “1,2-diacylglycerol compound, preparation method therefor, and immunomodulator containing same as active ingredient” (ENZYCHEM LIFESCIENCES CORPORATION, priority 2018, dated 2025).

Key:
HL-60 cells = assay: Migration of HL-60 cell line toward THP-1 culture supernatant (transmigration assay); format: cell-based, human; details: supernatant of THP-1 cells treated with sample 100 μg/ml 1 h, then Gemcitabine 2 μg/ml 24 h
Description: In RPMI (Hyclone, Thermo Scientific) medium to which 10% Fetal Bovine Serum was added, THP-1 cells, a human macrophage family, were subcultured at a concentration of 1×10^5 cells/ml, and culture was conducted in a 5% CO2 humidified incubator at 37° C. In order to prepare the THP-1 cell culture solution to be treated in the lower well during the transmigration assay, first, the cultured THP-1 cells were inoculated into a 12 well plate by 1×10^6 cells/ml and stabilized for 30 minutes. Then, the culture solution was treated with a glycerol derivative compounds of the type shown in Table 7 below for 1 hour and then was treated with Gemcitabine (2 μg/ml) of a cell stimulator, and subsequent further incubation was conducted for 24 hours. Thereafter 1.5 ml of the culture supernatant was collected for each well and centrifuged (at 3000 rpm, 5 minutes) to recover the supernatant. The CXCL8 (IL-8) level in the recovered supernatant was measured according to the manual provided by Cultrex 96 well Laminin Cell Invasion assay. The day before Transmigration assay was carried out, a 1× Lamin I solution was treated in the upper Invasion Chamber and coated. Thereafter, in RPMI (Hyclone, Thermo Scientific) medium to which 10% Fetal Bovine Serum was added, the cultured HL-60 cells were despensed of 5×10^4 cells/chamber, and 150 μl of the THP-1 culture supernatant prepared in advance was added to the lower chamber. Thereafter the upper chamber was removed, and the cells were attached to the bottom of the lower chamber by a centrifuge, and then the supernatant was removed. Cell dissociation/Calcein-AM solution was added and reacted for 1 hour. Then, the value obtained using a fluorescence spectroscopy was calculated by converting the number of cells.

STAT3 = assay: IL-6-induced STAT3 activity, SEAP expression in HEK-Blue IL-6 cells; format: cell-based; details: HEK-Blue IL-6 cells; for STAT3 activity_SEAP expression(%) (average ± deviation): sample 100 μg/ml 1 h, then IL-6 5 ng/ml 24 h, negative control = 100
Description: HEK-Blue™ IL-6 cells were used to confirm STAT3 activity by STAT3-induced SEAP (secreted embryonic alkaline phosphatase) expression. In DMEM (Hyclone, Thermo Scientific) medium to which 10% Fetal Bovine Serum was added, HEK-Blue™ IL-6 cells were cultured at a concentration of 1×10^5 cells/ml, and maintained in a 5% CO2 humidified incubator at 37° C. The cultured HEK-Blue™ IL-6 cells were inoculated by 1×10^5 cells/ml. Then, the culture solution was treated with a glycerol derivative compounds of the type shown in Table 4 below for 1 hour and then IL-6 (5 ng/ml) was further incubated for 24 hours for STAT3 activity. Thereafter, the culture supernatant was collected for each well and centrifuged (at 3000 rpm, 5 minutes) to recover the supernatant. The SEAP expression level in the recovered supernatant was mixed with Quanti blue reagent and the supernatant at a ratio of 1:10 and left at 37° C. for about 30 minutes. Then, the SEAP concentration was confirmed at 650 nm wavelength using a spectrophotometer, and the results (STAT3 activity inhibitory ability) thereof are shown in Table 4 and FIG. 3 below.

IL-6 = assay: LPS-induced IL-6 secretion reduction in RAW264.7 cells (ELISA); format: cell-based, mouse; details: sample 100 μg/ml 1 h, then LPS 1 μg/ml 24 h, Table 2
Description: In DMEM (Dulbecco Modified Eagle Medium, Hyclone, Thermo Scientific) medium to which 10% Fetal Bovine Serum was added, RAW264.7 cells, a mouse macrophage family, were suspended at a concentration of 1×10^5 cells/ml, and culture was conducted in a 5% CO2 humidified incubator at 37° C. The cultured RAW264.7 cells were inoculated into a 48 well plate by 5×10^4 cells/ml and stabilized for 15 hours. Then, the culture solution was treated with a glycerol derivative compounds of the type shown in Table 2 and 3 below for 1 hour and then was treated with 1 μg/ml of Lipopolysaccaride (LPS) of a cell stimulator, and subsequent further incubation was conducted for 24 hours. Thereafter 0.5 ml of the culture supernatant was collected for each well and centrifuged (at 3000 rpm, 5 minutes) to recover the supernatant. The IL-6 level in the recovered supernatant was measured according to the manual provided by the Mouse IL-6 ELISA set (BD Biosciences). The day before ELISA was carried out, the IL-6 capture antibody was diluted in phosphate buffered saline, coated on a microwell, and then stored at 4° C. overnight. Each well was washed three times with a buffer solution and then blocked with 2% Bovine Serum Albumin (BSA) for 1 hour at room temperature. After washing with buffer solution three times, […] of sample was dispensed into each well and left at room temperature for 2 hours. Detection antibody which was washed 3 times with washing buffer solution and diluted was dispensed into each well and allowed to react at room temperature for 1 hour and left at room temperature for 1 hour. Thereafter, the secondary HRP conjugated antibody was reacted at room temperature for 30 minutes, washed three times with a buffer solution, and treated with 50 μl of stop solution for each well, and then the optical density was measured at 450 nm with an ELISA microplate leader. The results of the IL-6 expression reduction rate (IL-6 concentration) are shown in Table 2, Table 3, FIG. 1 and FIG. 2 below.

CXCL8 (IL-8) = CXCL8 (IL-8) expression reduction in Gemcitabine-treated THP-1 cells (ELISA); format: cell-based, human; details: THP-1 cells; for CXCL8 [IL-8] concentration (average ± deviation): sample 100 μg/ml 1 h, then Gemcitabine 2 μg/ml 24 h
Description: In RPMI (Hyclone, Thermo Scientific) medium to which 10% Fetal Bovine Serum was added, THP-1 cells, a human macrophage family, were suspended at a concentration of 1×10^5 cells/ml, and culture was conducted in a 5% CO2 humidified incubator at 37° C. The cultured THP-1 cells were inoculated into a 12 well plate by 1×10^6 cells/ml and stabilized for 30 minutes. Then, the culture solution was treated with a glycerol derivative compounds of the type shown in Table 6 below for 1 hour and then was treated with Gemcitabine (2 μg/ml) of a cell stimulator, and subsequent further incubation was conducted for 24 hours. Thereafter 1.5 ml of the culture supernatant was collected for each well and centrifuged (at 3000 rpm, 5 minutes) to recover the supernatant. The CXCL8 (IL-8) level in the recovered supernatant was measured according to the manual provided by the human IL-8 ELISA set (BD Biosciences). The day before ELISA was carried out, the IL-8 capture antibody was diluted in phosphate buffered saline, coated on a microwell, and then stored at 4° C. overnight. Each well was washed three times with a buffer solution and then blocked with 2% Bovine Serum Albumin (BSA) for 1 hour at room temperature. After washing with washing buffer solution three times, 100 μl of sample was dispensed into each well and left at room temperature for 2 hours. Detection antibody which was washed 3 times with washing buffer and diluted was dispensed into each well and allowed to react at room temperature for 1 hour and left at room temperature for 1 hour. Thereafter, the secondary HRP conjugated antibody was reacted at room temperature for 30 minutes, washed three times with a washing buffer, and treated with 50 μl of stop solution for each well, and then the optical density was measured at 450 nm with an ELISA microplate leader.

IL-4 = assay: PKC activator-induced IL-4 secretion reduction in EL-4 cells (ELISA); format: cell-based, mouse; details: sample 100 μg/ml 2 h, then PKC activator 18 h, Table 11
Description: In DMEM (Dulbecco Modified Eagle Medium, Hyclone, Thermo Scientific) medium to which 10% Fetal Bovine Serum was added, EL-4 cells, a mouse lymphoma family, were subcultured at a concentration of 1×10^5 cells/ml, and culture was conducted in a 5% CO2 humidified incubator at 37° C. The cultured EL-4 cells were inoculated into a 48 well plate by 5×10^4 cells/ml and stabilized for 30 hours. Then, the culture solution was treated with a glycerol derivative compounds of the type shown in Table 11 and 12 below for 2 hours. Thereafter, it were treated with 0.5 μg/ml of PKC activator (p10, some kind of PMA) of a cell stimulator, and subsequent further incubation were conducted for 18 hours. Thereafter 0.5 ml of the culture supernatant was collected for each well and centrifuged (at 3000 rpm, 5 minutes) to recover the supernatant. The IL-4 level in the recovered supernatant was measured according to the manual provided by the Mouse IL-4 ELISA set (BD Biosciences). The day before ELISA was carried out, the IL-4 capture antibody was diluted in phosphate buffered saline, coated on a microwell, and then stored at 4° C. overnight. Each well was washed three times with a buffer solution and then blocked with 2% Bovine Serum Albumin (BSA) for 1 hour at room temperature. After washing with buffer solution three times, 100 μl of sample was dispensed into each well and left at room temperature for 2 hours. Detection antibody which was washed 3 times with washing buffer solution and diluted was dispensed into each well and allowed to react at room temperature for 1 hour and left at room temperature for 1 hour. Thereafter, the secondary HRP conjugated antibody was reacted at room temperature for 30 minutes, washed three times with buffer solution, and treated with 50 μl of stop solution for each well, and then the optical density was measured at 450 nm with an ELISA microplate leader. The results of the measured expression reduction rate ([…]) were shown in Table 11, Table 12, FIG. 11 and FIG. 12 below.

STAT6 = assay: IL-4-induced STAT6 activity, pGL4-STAT6 luciferase reporter in A549 cells; format: cell-based; details: sample 100 μg/ml 1 h, then IL-4 (2 ng/ml) 20 h, Table 9
Description: In DMEM (Dulbecco Modified Eagle Medium, Hyclone, Thermo Scientific) medium to which 10% Fetal Bovine Serum was added, A549 cells were subcultured at a concentration of 1×10^5 cells/ml, and culture was conducted in a 5% CO2 humidified incubator at 37° C. The cultured A549 cells were inoculated into a 48 well plate by 1×10^5 cells/ml and stabilized for 18 hours. Thereafter, pGL4-STAT6 reporter vector containing a STAT6 binding promoter portion was mixed with Attractene to induce complex formation at room temperature for 15 minutes. This complex was treated with the cells and then further incubated for 24 hours. Thereafter, the culture solution was treated with a glycerol derivative compounds of the type shown in Table 9 and 10 below for 1 hour, and then IL-4 (2 ng/ml or 10 ng/ml) was further incubated for 20 hours for STAT6 activity. Thereafter, the culture supernatant was removed for each well, and the remaining cells were lysed with a cell lysis buffer, and then cell lysate was recovered. 90 μl of luciferase reagent was mixed with 10 μl of the recovered cell lysate, and the degree of fluorescence was confirmed using a luminometer. The results are shown in Table 9, Table 10, FIG. 9 and FIG. 10 below.

Structure (SMILES)	Number of HL-60 cells migrated through Transwell (HL-60 cells)	STAT3 activity_SEAP expression(%) (average ± deviation) (STAT3)	IL-6 concentration (average ± deviation) (IL-6)	CXCL8 [IL-8] concentration (average ± deviation) (CXCL8 (IL-8))	IL-4 concentration (average ± deviation) (IL-4)	STAT6 activity_Luciferase activity (average ± deviation) (STAT6)	decrease of STAT3 activity compared to the IL-6 cytokine-treated group (STAT3; 100 μg/ml)	reduction of CXCL8 (IL-8) expression/secretion (CXCL8 (IL-8); Gemcitabine-treated, 100 μg/ml)
CCCCC/C=C\C/C=C\CCCCCCCC(=O)OC(COC(=O)CCCCCCCCCCCCCCC)COC(C)OC (centres unmarked) [EC_A70-1]	4047.1 Cell Number	259.5 ± 28.4%	0.144 ± 0.028 µg/mL	200.1 ± 1.0 pg/µL	865.6 ± 127.9 pg/µL	–	–	–
CCCCC/C=C\C/C=C\CCCCCCCC(=O)OC(COC(=O)CCCCCCCCCCCCCCC)COC(=O)c1ccccc1 (centres unmarked) [EC_A16]	26348.9 Cell Number	171.1 ± 17.5%	0.238 ± 0.008 µg/mL	135.1 ± 2.3 pg/µL	–	964.5 ± 170.3	about 25%	–
CCCCC/C=C\C/C=C\CCCCCCCC(=O)OC(COCCC)COC(=O)CCCCCCCCCCCCCCC (centres unmarked) [EC_A15]	28884.8 Cell Number	232.0 ± 50.4%	0.125 ± 0.003 µg/mL	73.8 ± 0.0 pg/µL	–	707.5 ± 51.3	–	about 20%
